Experimental data: PubChem BioAssay AID2253 (Southern Research Specialized Biocontainment Screening …, 2010)
pEC50: −log10 of the molar value.

What follows are compounds tested on THP-1 viability, CellTiter-Glo luminescence, 72 h (assay: THP-1 cell cytotoxicity, dose response, cytotoxicity control for Salmonella PhoP regulon inhibitors, S. typhimurium screen hits (AID 2253)).
Nc1nc2ccccc2n1Cc1ccc(Cl)c(Cl)c1 gave a pEC50 of 4.61.
In the case of O=C(O)C1Nc2c(O)cccc2C2C=CCC12 (stereo not drawn), the pEC50 was 4.65.
Work on COC(=O)c1cc(C)nc2c1C(=O)C(=O)C=C2N1CCOCC1 yielded a pEC50 of 5.53.
With CCCC(=O)NC(c1cccs1)c1cc([N+](=O)[O-])c2cccnc2c1O (stereo not drawn) the pEC50 was 5.15.
Work on Cc1ccc2nc(C)c(CN3CCN(c4ccc([N+](=O)[O-])cc4Cl)CC3)n2c1 yielded a pEC50 of 4.70.
CCCCCCC(=O)N(O)C1CC(=O)N(c2ccc(C)cc2)C1=O (stereo not drawn) showed a pEC50 of 4.51.
For CCCc1nc2c(=O)n(C)c(=O)nc-2n(C)n1, the pEC50 was 5.63.
Compound CCCOc1ccc(Br)cc1CSC(=N)N has a pEC50 of 5.27.
With CC(=O)Nc1cc(N=Cc2ccc(O)cc2O)c(Cl)cc1Cl the pEC50 was 4.34.
S=C(NCc1ccncc1)Nc1ccc(Cl)c(Cl)c1 gave a pEC50 of 4.34.
In the case of NNC(=S)Nc1ccc(Cl)cc1, the pEC50 was 4.32.
Compound CN(C)CCCNc1cc(C(C)(C)C)nc2c(-c3ccccc3)cnn12 has a pEC50 of 5.03.
In the case of NC1=NC[C@H](Cc2ccccc2)N1CCCCC1CCCCC1, the pEC50 was 5.43.
Work on CCCCCCCCCCCCCCCC[N+](C)(C)CCN(Cc1ccc(OC)cc1)c1ncccn1 yielded a pEC50 of 6.29.
NC1=NC(=Nc2ccc(Br)cc2)c2ccccc21 was tested, and the pEC50 was 4.59.
O=C1C(=O)c2ccccc2-c2ccccc21 showed a pEC50 of 5.10.
In the case of CN1CCN(C(c2ccccn2)c2cc(Cl)c3cccnc3c2O)CC1 (stereo not drawn), the pEC50 was 5.04.
CCCCCNCC(=O)Nc1cccc(C(=O)Nc2cccc(C(F)(F)F)c2)c1 showed a pEC50 of 4.91.
With C1CCC(C(CC2CCCCN2)C2CCCCC2)CC1 (stereo not drawn) the pEC50 was 5.26.
With COc1ccc(O)c(/C=c2/sc3nc4cc(C)c(C)cc4n3c2=O)c1 the pEC50 was 4.47.
For NC(N)=NN=C1CCCCCCCCCCC1, the pEC50 was 5.12.
S=C(Nc1ccccc1)Nc1nc2ccccc2n1CCOc1ccc(Cl)cc1 was tested, and the pEC50 was 4.82.
Oc1cc(Cl)ccc1Oc1ccc(Cl)cc1Cl gave a pEC50 of 4.47.
Compound Nc1cc(Cl)c2nonc2c1[N+](=O)[O-] has a pEC50 of 5.65.
CC(=O)c1ccc(NC(=O)Nc2cccc(Cl)c2)cc1 was tested, and the pEC50 was 4.70.
Oc1cccc(/C=N/NC(=S)Nc2cccnc2)c1O showed a pEC50 of 5.39.
Compound O=C(CN1CC(c2ccccc2)CC1=O)N/N=C/c1cc(Br)ccc1O (stereo not drawn) has a pEC50 of 5.43.
COc1cccc(-n2c(SCc3cc(=O)oc4cc(O)c(O)cc34)nc3ccccc3c2=O)c1 was tested, and the pEC50 was 4.82.
Oc1ccc(C=Nc2cccc3ncccc23)c(O)c1 showed a pEC50 of 4.36.
Cc1[nH]c2ccccc2c1/C=N/Nc1ccc(F)cc1F was tested, and the pEC50 was 4.31.
For CCCCCCCSc1cc(OC)c(CCN(C)C)cc1OC, the pEC50 was 4.85.
For COc1ccc(NC(C)C(=O)Nc2ccc(C(C)(C)C)cc2)cc1Cl (stereo not drawn), the pEC50 was 4.39.
c1ccc2c(NC3=NCCS3)cccc2c1 showed a pEC50 of 4.50.
CCOC(=O)Cc1csc(NC(=O)NC2(C(F)(F)F)Oc3cc(Cl)c(Cl)cc3O2)n1 showed a pEC50 of 4.58.
For CCN(CC)S(=O)(=O)c1cccc(NC(=O)Nc2cccc(C(F)(F)F)c2)c1, the pEC50 was 5.29.
With CC1CCC(C(C)C)C(OC(=O)Cn2c(-c3ccc(Cl)cc3)[n+](C)c3ccccc32)C1 (stereo not drawn) the pEC50 was 5.67.
CCOC(=O)N1CCN(S(=O)(=O)c2ccc(C(=O)NNc3nc4cc(C)cc(C)c4s3)cc2)CC1 was tested, and the pEC50 was 5.54.
Oc1ccc(Cl)cc1Cc1cc(Cl)ccc1O gave a pEC50 of 4.71.
For Cc1cc(/C=N/NC(=O)c2cccc([N+](=O)[O-])c2)c(C)n1-c1ccc(Cl)cc1Cl, the pEC50 was 4.36.
In the case of O=[N+]([O-])c1cc(Cl)c(O)c2ncccc12, the pEC50 was 4.82.
Work on Cc1ccc(/C=C2\SC(=S)N(Cc3ccccc3)C2=O)o1 yielded a pEC50 of 4.61.
Cc1cccc(NC(=O)Cn2c(/C=C/c3ccccc3)nc3ccccc32)c1 showed a pEC50 of 4.35.
Cc1ccc(S(=O)(=O)Nc2cc(Cl)c(O)c3ncccc23)cc1 was tested, and the pEC50 was 5.81.
In the case of O=c1c(Cl)c(Cl)cnn1-c1ccccc1, the pEC50 was 5.85.
In the case of Oc1c(I)cc(Cl)c2cccnc12, the pEC50 was 4.84.
In the case of O=C(Nc1nc(-c2ccccn2)cs1)c1ccc(Cl)s1, the pEC50 was 6.10.
O=C(N/N=C/c1cc([N+](=O)[O-])ccc1O)c1ccncc1 was tested, and the pEC50 was 4.82.
O=C(Nc1ccccc1)Nc1ncc([N+](=O)[O-])s1 gave a pEC50 of 4.80.
For CCOc1cc(/C=N/N=C(N)N)ccc1OCc1ccc(Cl)cc1, the pEC50 was 5.28.
Work on Cc1ccc(S(=O)(=O)c2c(C(=O)c3ccccc3)cnc3cc4c(cc23)OCCO4)cc1 yielded a pEC50 of 4.52.
In the case of Cc1nnc(N/N=C/c2ccccn2)[nH]c1=O, the pEC50 was 6.09.
Work on Cc1c(C(=O)Nc2cccc(Cl)c2)c2ccccn2c1CCc1ccncc1 yielded a pEC50 of 4.61.
Work on O=C(N/N=C\c1cccc([N+](=O)[O-])c1O)C1COc2ccccc2O1 (stereo not drawn) yielded a pEC50 of 4.67.
O=C1NC2=C(CCc3ccccc32)C(c2ccc(Br)cc2)N1 (stereo not drawn) was tested, and the pEC50 was 4.71.
With CCOC(=O)c1ccc(-c2ccc(C3Nc4ccccc4C(=O)N3O)o2)cc1 (stereo not drawn) the pEC50 was 5.03.
CCOc1cccc(CNc2ccc(O)cc2)c1OCc1ccc(Cl)cc1Cl gave a pEC50 of 4.57.
O=C(Nc1ccccc1)Nc1ccc(Cl)c([N+](=O)[O-])c1 gave a pEC50 of 4.85.
For Cc1ccc(O)c(-c2cc(-c3cccc(F)c3)n[nH]2)c1, the pEC50 was 4.74.
Cc1ccc(S(=O)(=O)/N=C2/C=C(Sc3ncn[nH]3)C(=O)c3ccccc32)cc1 was tested, and the pEC50 was 5.67.
Cc1ccc(NC(=S)NC(NC(=O)c2ccco2)C(Cl)(Cl)Cl)cc1 (stereo not drawn) gave a pEC50 of 4.71.
In the case of CCOC(=O)c1sc(NC(=O)Nc2ccc(Cl)cc2)cc1C, the pEC50 was 4.99.
Oc1c(C(Nc2nc3ccccc3s2)c2ccco2)ccc2cccnc12 (stereo not drawn) was tested, and the pEC50 was 6.19.
For COc1ccc(NC2=NC3(CCCCC3)N=C(N)N2)cc1, the pEC50 was 4.46.
In the case of COc1cc([N+](=O)[O-])cc(/C=N\NC(=O)C2COc3ccccc3O2)c1O (stereo not drawn), the pEC50 was 4.71.
Fc1ccc(Nc2nc(NCc3ccco3)c3ccccc3n2)cc1 was tested, and the pEC50 was 5.18.
COc1cccc(/C=N/Nc2ncc(C(F)(F)F)cc2Cl)c1O gave a pEC50 of 6.01.
Cc1ccc(C(=O)CSC2=C(C#N)C(c3ccco3)CC(=O)N2)c(C)c1 (stereo not drawn) gave a pEC50 of 4.47.
COc1c(Cl)cnn(-c2ccc(C)cc2)c1=O gave a pEC50 of 4.78.
Cc1cc(/C=N/n2cnnc2)c(C)n1-c1ccc(OCc2ccc(F)cc2)cc1 was tested, and the pEC50 was 4.90.
With COc1ccc(CCNC(=S)Nc2cccc3ccccc23)cc1 the pEC50 was 4.50.
With Nc1nc(F)nc2c1ncn2[C@@H]1O[C@H](CO)[C@@H](O)[C@H]1O the pEC50 was 6.52.
CC1(C)CC(=O)C2=C(C1)OC1=C(C(=O)CC(C)(C)C1)C2c1ccc(O)cc1O showed a pEC50 of 5.27.
Clc1c(OCCCn2ccnc2)ccc2ccccc12 showed a pEC50 of 4.45.
For N=c1n(CC(=O)c2ccc(Br)s2)c2ccccc2n1Cc1ccccc1, the pEC50 was 5.12.
With NC1=NC[C@@H](Cc2ccc(O)cc2)N1CCCCC1CCCCC1 the pEC50 was 5.26.
Compound CCc1ccc(NC(=O)C[n+]2cc(-c3ccc(C)cc3)n3c2CCC3)cc1 has a pEC50 of 5.24.
CCCCCCCCCCOC(=O)Cn1c(COc2ccc(Cl)cc2)[n+](C)c2ccccc21 was tested, and the pEC50 was 5.69.
Oc1c(CN2CCN(c3ccc(F)cc3)CC2)cc(Cl)c2cccnc12 gave a pEC50 of 5.20.
With COc1cccc(/C=N/NC(=O)c2ccc(-c3ccccc3)cc2)c1O the pEC50 was 5.97.
CCOc1ccc(-n2c(SCc3nc(-c4ccc(C)cc4)no3)nnc2-c2ccncc2)cc1 gave a pEC50 of 4.55.
Work on N#CC1=C(N)N=C(SCc2cccc3ccccc23)C(C(N)=O)C12CCCCC2 (stereo not drawn) yielded a pEC50 of 4.68.
With N=c1n(CC(=O)c2ccc([N+](=O)[O-])cc2)c2ccccc2n1Cc1ccccc1 the pEC50 was 4.84.
In the case of Oc1c(CN2CCOCC2)cc(COCc2ccccc2)c2cccnc12, the pEC50 was 5.51.
In the case of O=C(CN1CCCC1)N/N=C/c1c(O)ccc2ccccc12, the pEC50 was 5.46.
Compound CCOC(=O)COc1ccccc1/C=C\[N+](=O)[O-] has a pEC50 of 5.55.
Nc1ncn([C@@H]2O[C@H](CO)[C@@H](O)[C@H]2O)c(=O)n1 showed a pEC50 of 4.76.
Cc1nc2c(=O)n(C)c(=O)nc-2n(C)n1 showed a pEC50 of 5.91.
Compound Nc1ccc(N(c2ccccc2)c2ccc(N)cc2)cc1 has a pEC50 of 5.31.
In the case of O=c1cc2oc3cc(O)c(O)cc3c(-c3ccccc3[N+](=O)[O-])c-2cc1O, the pEC50 was 4.98.
For COC12C(COC(N)=O)C3=C(C(=O)C(C)=C(N)C3=O)N1CC1C2N1C (stereo not drawn), the pEC50 was 5.04.
With CN(C)c1ccc(/C=C/c2ccc3c4ccccc4ccc3[n+]2-c2ccccc2)cc1 the pEC50 was 6.59.
Compound O=S(=O)(Nc1cc(Sc2ncn[nH]2)c(O)c2ccccc12)c1ccccc1 has a pEC50 of 5.27.
O=[N+]([O-])c1ccc(O)c2ncccc12 showed a pEC50 of 5.08.
CC1(C)SC(=S)N(NC(=O)Nc2ccccc2)C1N(O)C(=O)Nc1ccccc1 (stereo not drawn) was tested, and the pEC50 was 4.42.
In the case of CCc1nn2cc(C(=O)c3cc(Cl)ccc3O)cnc2c1-c1ccc(F)cc1, the pEC50 was 4.42.
Cc1ccc(NC(=O)NCC2CCN(Cc3cccc(Cl)c3)CC2)cc1Cl gave a pEC50 of 4.86.
Compound Oc1ccc(/C=N/Nc2ncc(Br)cn2)c(O)c1 has a pEC50 of 5.51.
Work on CCCCCOc1ccc(CSC(=N)N)cc1[N+](=O)[O-] yielded a pEC50 of 5.10.
C/C(=C\C(=O)c1cccnc1)Nc1ccc(O)cc1 was tested, and the pEC50 was 4.32.
NCC12CC3CC(C1)CC(c1ccc(Br)cc1)(C3)C2 showed a pEC50 of 5.08.
CN1c2ccccc2C(C)(C)[C@]12C=Cc1cc(O)ccc1O2 was tested, and the pEC50 was 4.81.
For Cc1ccccc1NC(=O)CCC(=O)N/N=C/c1cc([N+](=O)[O-])ccc1O, the pEC50 was 4.71.
Work on O=C(N/N=C/c1cc(O)ccc1Br)c1cccnc1 yielded a pEC50 of 5.65.
Compound C=CCc1cccc(C2Nc3ccccc3C(=O)N2O)c1O (stereo not drawn) has a pEC50 of 4.37.
With Cc1ccc2[nH]c3c(NCc4ccco4)ncnc3c2c1 the pEC50 was 4.46.
In the case of O=C(/C=C/c1ccco1)Oc1cc(Br)cc(/C=N/NC(=O)c2ccccc2O)c1, the pEC50 was 6.46.
In the case of CC(C(=O)Nc1cc([N+](=O)[O-])ccc1Cl)N1CCN(c2ccccc2O)CC1 (stereo not drawn), the pEC50 was 4.59.
Compound O=C(N/N=C/c1ccc(O)cc1O)/C(=C/c1ccccc1)CCO has a pEC50 of 5.39.
C=CCNc1ncnc2c1[nH]c1ccc(C)cc12 was tested, and the pEC50 was 4.59.
In the case of Cc1ccccc1OCc1n(CC(=O)OC2CC(C)CCC2C(C)C)c2ccccc2[n+]1C (stereo not drawn), the pEC50 was 5.70.
With CC(C)c1ccc(NC(=O)N(CCc2nc3ccccc3[nH]2)C2CCCC2)cc1 the pEC50 was 4.37.
In the case of Cc1nc2c(=O)n(C)c(=O)n(C)c2nc1Cl, the pEC50 was 5.13.
CCCCOc1ccc(S(=O)(=O)NNC(=O)C2Cc3c(ccc4ccccc34)O2)cc1 (stereo not drawn) was tested, and the pEC50 was 4.37.
For CCOC(=O)CSc1n[nH]c(NC(=O)c2cccc(C)c2)n1, the pEC50 was 4.31.
CCn1cc(C(=O)O)c(=O)c2cc(F)c(N3CCN(C(=S)NC(=O)c4c(OC)cccc4OC)CC3)cc21 gave a pEC50 of 4.36.
Work on O=C(c1ccc(F)cc1)C(CN1CCOCC1)c1ccccc1 (stereo not drawn) yielded a pEC50 of 5.16.
COc1ccc(CNC[C@@H](CCCCN(C)Cc2ccc(OC)cc2)N2C[C@H](c3ccccc3)N(CCc3ccc(Cl)c(Cl)c3)C(=O)C2=O)cc1 gave a pEC50 of 5.41.
Compound O=C1c2ccccc2C(=O)c2[nH]c(=O)[nH]c21 has a pEC50 of 5.32.
